Data published in PubChem BioAssay AID330 (DTP/NCI, 2004).
Where “and” joins values, the source holds several entries; their conditions need not be identical. Identical values can stand only once. Toxic doses and inconclusive results are not listed.

System: P388 leukemia ip, CD2F1 mice, survival T/C
Experiment: NCI In Vivo Anticancer Drug Screen. Data for tumor model P388 Leukemia (intraperitoneal) in CD2F1 (CDF1) mice
Settings: endpoint: median survival time, higher = longer survival
Method in brief: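 Mice carrying the transplanted tumor received test compound or vehicle. Survival was recorded in each group, and the value is the treated-group measurement divided by that of the vehicle-treated control group.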

[1] = dose: 1.56 mg/kg/injection, schedule: Q01DX009 (ip), vehicle: saline with Tween-80
[2] = dose: 50.0 mg/kg/injection, schedule: Q01DX009 (ip), vehicle: saline with Tween-80
[3] = dose: 100.0 mg/kg/injection, schedule: Q01DX009 (ip), vehicle: saline with Tween-80
[4] = dose: 200.0 mg/kg/injection, schedule: Q01DX009 (ip), vehicle: saline with Tween-80
[5] = dose: 50.0 mg/kg/injection, schedule: Q01DX005 (ip), vehicle: Klucel (hydroxypropylcellulose) (HPC)
[6] = dose: 100.0 mg/kg/injection, schedule: Q01DX005 (ip), vehicle: Klucel (hydroxypropylcellulose) (HPC)
[7] = dose: 200.0 mg/kg/injection, schedule: Q01DX005 (ip), vehicle: Klucel (hydroxypropylcellulose) (HPC)
[8] = dose: 60.0 mg/kg/injection, schedule: Q01DX005 (ip), vehicle: saline with Tween-80
[9] = dose: 120.0 mg/kg/injection, schedule: Q01DX005 (ip), vehicle: saline with Tween-80
[10] = dose: 240.0 mg/kg/injection, schedule: Q01DX005 (ip), vehicle: saline with Tween-80
[11] = dose: 50.0 mg/kg/injection, schedule: Q01DX005 (ip), vehicle: saline with Tween-80
[12] = dose: 100.0 mg/kg/injection, schedule: Q01DX005 (ip), vehicle: saline with Tween-80

## NC(=O)NNC(=O)NNC(N)=O
dose: 100.0 mg/kg/injection, schedule: Q04DX003 (ip), vehicle: saline
  T/C: 98 % of control
dose: 200.0 mg/kg/injection, schedule: Q04DX003 (ip), vehicle: saline
  T/C: 96 % of control
dose: 400.0 mg/kg/injection, schedule: Q04DX003 (ip), vehicle: saline
  T/C: 106 % of control

## CCOC(=O)CN=C(c1ccccc1)c1ccccc1
dose: 6.25 mg/kg/injection, schedule: Q01DX009 (ip), vehicle: saline
  T/C: 105 % of control
dose: 12.5 mg/kg/injection, schedule: Q01DX009 (ip), vehicle: saline
  T/C: 105 % of control
dose: 25.0 mg/kg/injection, schedule: Q01DX009 (ip), vehicle: saline
  T/C: 105 % of control
dose: 100.0 mg/kg/injection, schedule: Q01DX009 (ip), vehicle: saline
  T/C: 89 % of control

## COC(=O)C1=C(C)NC(=O)NC1c1ccc(N(CCCl)CCCl)c(OC)c1 (stereo not drawn)
[1]
  T/C: 160 % of control
dose: 3.13 mg/kg/injection, schedule: Q01DX009 (ip), vehicle: saline with Tween-80
  T/C: 186 % of control
dose: 6.25 mg/kg/injection, schedule: Q01DX009 (ip), vehicle: saline with Tween-80
  T/C: 117 % of control
dose: 12.5 mg/kg/injection, schedule: Q01DX009 (ip), vehicle: saline with Tween-80
  T/C: 96 % of control

## O=C(O)C(=O)O.O=C(O)C(=O)O.O=C(O)C(=O)O.[Co]
dose: 6.25 mg/kg/injection, schedule: Q04DX002 (ip), vehicle: saline
  T/C: 91 % of control
dose: 12.5 mg/kg/injection, schedule: Q04DX002 (ip), vehicle: saline
  T/C: 100 % of control
dose: 25.0 mg/kg/injection, schedule: Q04DX002 (ip), vehicle: saline
  T/C: 91 % of control

## CCCCCOP(=O)(N=[N+]=[N-])OCCCCC
dose: 0.78 mg/kg/injection, schedule: Q01DX009 (ip), vehicle: saline with Tween-80
  T/C: 98 % of control
[1]
  T/C: 98 % of control

## Cc1cc(C)c([N+](=O)[O-])c([N+](=O)[O-])c1C
[2]
  T/C: 101 % of control
[3]
  T/C: 106 % of control
[4]
  T/C: 102 % of control

## O=[N+]([O-])c1ccc(-c2cnc3nc4[nH]c5ccccc5c4nn23)cc1
dose: 100.0 mg/kg/injection, schedule: Q01DX001 (ip), vehicle: saline with Tween-80
  T/C: 101 % of control
dose: 200.0 mg/kg/injection, schedule: Q01DX001 (ip), vehicle: saline with Tween-80
  T/C: 92 % of control
dose: 400.0 mg/kg/injection, schedule: Q01DX001 (ip), vehicle: saline with Tween-80
  T/C: 87 % of control

## c1ccc2c(-c3ccc(N4CCOCC4)cc3)c3ccc4ccccc4c3cc2c1
[5]
  T/C: 91 % of control
[6]
  T/C: 92 % of control
[7]
  T/C: 99 % of control

## Cc1c2c(c(C)c3c1C(=O)c1cc4c(cc1C3=O)OCO4)OC(C)(C)O2
[8]
  T/C: 89 % of control
[9]
  T/C: 94 % of control
[10]
  T/C: 100 % of control

## Cc1ccccc1N=C(CCl)Nc1ccccc1C
[11]
  T/C: 94 % of control
[12]
  T/C: 99 % of control

## O=C(NO)C1NC1C(=O)NO (stereo not drawn)
dose: 25.0 mg/kg/injection, schedule: Q01DX009 (ip), vehicle: water
  T/C: 96 % of control
dose: 50.0 mg/kg/injection, schedule: Q01DX009 (ip), vehicle: water
  T/C: 109 % of control
dose: 100.0 mg/kg/injection, schedule: Q01DX001 (ip), vehicle: water
  T/C: 100 % of control
dose: 100.0 mg/kg/injection, schedule: Q01DX009 (ip), vehicle: water
  T/C: 111 % of control
dose: 100.0 mg/kg/injection, schedule: Q04DX003 (ip), vehicle: water
  T/C: 115 % of control
dose: 200.0 mg/kg/injection, schedule: Q01DX001 (ip), vehicle: water
  T/C: 107 % of control
dose: 200.0 mg/kg/injection, schedule: Q04DX003 (ip), vehicle: water
  T/C: 112 % of control
dose: 400.0 mg/kg/injection, schedule: Q01DX001 (ip), vehicle: water
  T/C: 100 % of control
dose: 400.0 mg/kg/injection, schedule: Q04DX003 (ip), vehicle: water
  T/C: 112 % of control
dose: 600.0 mg/kg/injection, schedule: Q01DX001 (ip), vehicle: water
  T/C: 101 % of control

## COC(=O)C1=NC(c2ccccc2)(c2ccccc2)C(C(=O)OC)=C(C(=O)OC)P(c2ccccc2)(c2ccccc2)=C1C(=O)OC
[5]
  T/C: 88 % of control
[6]
  T/C: 92 % of control
[7]
  T/C: 110 % of control

## Cc1c2c(cc3c4ccccc4n(C)c13)C(=O)c1ccccc1C2=O
dose: 100.0 mg/kg/injection, schedule: Q04DX002 (ip), vehicle: saline with Tween-80
  T/C: 90 % of control
dose: 200.0 mg/kg/injection, schedule: Q04DX002 (ip), vehicle: saline with Tween-80
  T/C: 87 % of control
dose: 400.0 mg/kg/injection, schedule: Q04DX002 (ip), vehicle: saline with Tween-80
  T/C: 92 % of control

## COc1cccc2c1C(=O)c1c(O)c3c(c(O)c1C2=O)CC(O)(C(C)=O)CC3OC1CC(OC(=O)c2ccc([N+](=O)[O-])cc2)C(OC(=O)c2ccc([N+](=O)[O-])cc2)C(COC(=O)c2ccc([N+](=O)[O-])cc2)O1 (stereo not drawn)
dose: 3.13 mg/kg/injection, schedule: Q04DX003 (ip), vehicle: distilled water + Tween-80
  T/C: 100 % of control and 101 % of control
dose: 6.25 mg/kg/injection, schedule: Q04DX003 (ip), vehicle: distilled water + Tween-80
  T/C: 100 % of control and 99 % of control
dose: 12.5 mg/kg/injection, schedule: Q04DX003 (ip), vehicle: distilled water + Tween-80
  T/C: 104 % of control
dose: 25.0 mg/kg/injection, schedule: Q04DX003 (ip), vehicle: distilled water + Tween-80
  T/C: 102 % of control and 100 % of control
dose: 50.0 mg/kg/injection, schedule: Q04DX003 (ip), vehicle: distilled water + Tween-80
  T/C: 95 % of control

## O=C1c2ccncc2C(=O)c2c1[nH]c1ccccc21
dose: 7.5 mg/kg/injection, schedule: Q04DX002 (ip), vehicle: Klucel (hydroxypropylcellulose) (HPC)
  T/C: 97 % of control
dose: 15.0 mg/kg/injection, schedule: Q04DX002 (ip), vehicle: Klucel (hydroxypropylcellulose) (HPC)
  T/C: 95 % of control
dose: 30.0 mg/kg/injection, schedule: Q04DX002 (ip), vehicle: Klucel (hydroxypropylcellulose) (HPC)
  T/C: 90 % of control and 97 % of control
dose: 60.0 mg/kg/injection, schedule: Q04DX002 (ip), vehicle: Klucel (hydroxypropylcellulose) (HPC)
  T/C: 95 % of control

## CS(=O)CC(Nc1ccccc1)c1ccccc1 (stereo not drawn)
dose: 60.0 mg/kg/injection, schedule: Q01DX005 (ip), vehicle: Klucel (hydroxypropylcellulose) (HPC)
  T/C: 108 % of control
dose: 120.0 mg/kg/injection, schedule: Q01DX005 (ip), vehicle: Klucel (hydroxypropylcellulose) (HPC)
  T/C: 95 % of control
dose: 240.0 mg/kg/injection, schedule: Q01DX005 (ip), vehicle: Klucel (hydroxypropylcellulose) (HPC)
  T/C: 87 % of control

## Cc1cc(Cl)ccc1NC(=O)Oc1ccc(C#N)cc1
[8]
  T/C: 90 % of control
[9]
  T/C: 90 % of control
[10]
  T/C: 90 % of control

## CCOC(=O)C(=O)C(C#N)c1ccccc1CC#N (stereo not drawn)
[11]
  T/C: 109 % of control
[12]
  T/C: 97 % of control

## COc1ccc(-n2c(C)csc2=S)cc1
dose: 50.0 mg/kg/injection, schedule: Q04DX003 (ip), vehicle: saline with Tween-80
  T/C: 100 % of control
dose: 100.0 mg/kg/injection, schedule: Q04DX003 (ip), vehicle: saline with Tween-80
  T/C: 100 % of control
dose: 200.0 mg/kg/injection, schedule: Q04DX003 (ip), vehicle: saline with Tween-80
  T/C: 95 % of control

## CC(=O)OCC(C)(C)COC1OCN(C(C)(C)C)CC1(C)C (stereo not drawn)
dose: 10.0 mg/kg/injection, schedule: Q01DX009 (ip), vehicle: saline with Tween-80
  T/C: 94 % of control
dose: 20.0 mg/kg/injection, schedule: Q01DX009 (ip), vehicle: saline with Tween-80
  T/C: 104 % of control
dose: 40.0 mg/kg/injection, schedule: Q01DX009 (ip), vehicle: saline with Tween-80
  T/C: 110 % of control

## Cc1cccc(-c2nc(N)nc(N)n2)c1
[2]
  T/C: 92 % of control
[3]
  T/C: 95 % of control
[4]
  T/C: 104 % of control

## CC(=O)OCc1c(COC(C)=O)c(C(F)(F)F)n2c1CCC2
dose: 50.0 mg/kg/injection, schedule: Q01DX009 (ip), vehicle: Klucel (hydroxypropylcellulose) (HPC)
  T/C: 90 % of control
dose: 100.0 mg/kg/injection, schedule: Q01DX009 (ip), vehicle: Klucel (hydroxypropylcellulose) (HPC)
  T/C: 93 % of control
dose: 200.0 mg/kg/injection, schedule: Q01DX009 (ip), vehicle: Klucel (hydroxypropylcellulose) (HPC)
  T/C: 104 % of control

## COc1ccc(C(NCCn2cnc3c2c(=O)n(C)c(=O)n3C)c2ccccc2)cc1 (stereo not drawn)
dose: 6.25 mg/kg/injection, schedule: Q01DX005 (ip), vehicle: alkali diluted with saline
  T/C: 100 % of control
dose: 12.5 mg/kg/injection, schedule: Q01DX005 (ip), vehicle: alkali diluted with saline
  T/C: 100 % of control
dose: 25.0 mg/kg/injection, schedule: Q01DX005 (ip), vehicle: alkali diluted with saline
  T/C: 96 % of control
